For one data set, the target named is cardiac INa (Homo sapiens, UniProt Q14524). To be noted: cited from earlier work.
A further data set concerns the target L-type calcium current (Homo sapiens, UniProt Q13936). As to conditions: cited from earlier work.
In data set [1] the test system is inward rectifier K+ current. To be noted: cited from earlier work.
In the next data set the test system is rat ventricular myocytes. Briefly: Action potentials in isolated rat ventricular myocytes, whole-cell current clamp. The protocol: Ventricular myocytes were isolated from the hearts of 3-week or 6 to 7- week-old Sprague-Dawley rats of either sex. Rats were anaesthetized with pentobarbitone sodium (i.p. 200 mg kg^−1). Isolated hearts were mounted on a Langendorff perfusion apparatus, washed at 37° C. for 5 min with a modified Tyrode solution containing (mM): 143 NaCl, 5.4 KCl, 5 HEPES, 0.5 MgCl2, 0.5 NaH2PO4, 1.8 CaCl2, 10 glucose, adjusted pH to 7.4 with NaOH, and then perfused with Ca^2+-free Tyrode solution for 5 min. After the hearts had stopped beating, Ca^2+-free Tyrode solution containing collagenase (0.5 mg ml^−1, Type II, Worthington) was perfused for 30 min. Finally, this enzyme containing solution was washed out for 5 min with a high K^+, low Cl^−KB solution containing (in mM): 70 K-glutamate, 55 KCl, 10 HEPES, 3 MgCl2, 20 taurine, 20 KH2PO4, 0.5 K-EGTA adjusted pH to 7.3 with KOH. A portion of the left ventricle was then dissected out and gently stirred with a forceps in KB solution. The isolated ventricular myocytes were kept in KB solution at 5° C. before use.
Patch pipettes (1˜2 MΩ when filled with experimental solutions) were pulled from borosilicate glass capillaries (Harvard Apparatus Ltd, UK). Conventional whole-cell patch clamp technique was used to record membrane current or voltage from single ventricular myocytes. In current-clamp mode, action potentials were evoked by a brief supra-threshold current pulse. In voltage clamp mode, access resistance was monitored throughout the experiment, and data were accepted only when the access resistance was kept below 6 MΩ. Filtered signals (10 KHz) from a patch clamp amplifier (Biologic RK 300, France), were fed into AD/DA converter (PCI-MIO-16E-4, National Instrument, USA), digitized at 20 KHz, and stored in PC for later analysis. The flow rate of the perfusion solution was 0.5˜1 ml min^−1. All electrophysiological experiments were performed at room temperature (23˜25° C.). The statistical results in the text and in figures were presented as means ±S.E.M. (n=number of cells studied). Statistical significance was accepted for p value <0.05.
APs were evoked by applying 50-70 pA depolarising current pulses (5 ms in duration) every 500 ms through a patch pipette in current clamp mode with a whole-cell configuration. The effects of dmLSB on APD were quantified in terms of APD90; defined as the APD measured at the voltage at which repolarization process is 90% complete. Time-profile of the change in APD90 values averaging from five sequential APs selected every 12 seconds was plotted in FIG. 2A as a function of whole-cell recording time.
Experimental methods for electrophysiology (recording currents and action potentials) are the same as described above for dmLSB.

Data set [2] deals with inward rectifier K+ currents and delayed rectifier K+ currents. Briefly: K+ currents in rat ventricular myocytes, voltage clamp with K+-rich pipette solution. Format: cell-based. As to conditions: 10 μM dmLSB; I950ms. The protocol: (§1) Statistical significance was accepted for p value <0.05.
The K-rich pipette solution containing (in mM): 90 K-aspartate, 30 KCl, 2 MgCl2, 5 Mg-ATP, 10 HEPES, 5 K-EGTA, 5 diTris-creatine phosphate, 2.5 Na2-creatine phosphate was used. Cs-aspartate internal solution contained (in mM): 90 Cs-aspartate, 20 CsCl, 2 MgCl2, 5 Mg-ATP, 10 HEPES, 2.5 Na2-creatine phosphate, 10 tetraethyl-ammonium chloride (TEA-Cl), 5 Cs-EGTA with pH adjusted to 7.3 using CsOH. When Cs-aspartate internal solution was used in combination with normal Tyrode (NT) bathing solution, the holding current level was inward at −80 mV, probably due to K^+ influx via inward rectifier K channels. To prevent this inward holding current, KCl in the NT solution was substituted with equimolar CsCl.
To elucidate the mechanism underlying APD change by dmLSB, voltage-clamp experiments were performed and the effects of dmLSB on the ionic currents in rat ventricular myocytes were investigated. Membrane currents were recorded in a voltage clamp mode using a patch pipette containing a K^+-rich (140 mM) internal solution. […]
However, initial amplitudes measured at 20 ms (I20ms) in the presence of dmLSB differed from those measured under control conditions, and the I-V relationship deviated inwardly by dmLSB. […]

In data set [3] the target is L-type Ca2+ current (ICa,L) (Rattus norvegicus, UniProt P22002). The format is cell-based. As to conditions: 10 μM dmLSB.
Another data set deals with Na+ current (INa) (Rattus norvegicus, UniProt P15389). As to the kind of experiment: Na+ current (INa) in rat ventricular myocytes, whole-cell voltage clamp. The format is cell-based. Set-up: endogenous in cells; host or cells: freshly isolated rat (Sprague-Dawley) left ventricular myocytes.
Na+ current (INa), sequence (P15389 whole entry): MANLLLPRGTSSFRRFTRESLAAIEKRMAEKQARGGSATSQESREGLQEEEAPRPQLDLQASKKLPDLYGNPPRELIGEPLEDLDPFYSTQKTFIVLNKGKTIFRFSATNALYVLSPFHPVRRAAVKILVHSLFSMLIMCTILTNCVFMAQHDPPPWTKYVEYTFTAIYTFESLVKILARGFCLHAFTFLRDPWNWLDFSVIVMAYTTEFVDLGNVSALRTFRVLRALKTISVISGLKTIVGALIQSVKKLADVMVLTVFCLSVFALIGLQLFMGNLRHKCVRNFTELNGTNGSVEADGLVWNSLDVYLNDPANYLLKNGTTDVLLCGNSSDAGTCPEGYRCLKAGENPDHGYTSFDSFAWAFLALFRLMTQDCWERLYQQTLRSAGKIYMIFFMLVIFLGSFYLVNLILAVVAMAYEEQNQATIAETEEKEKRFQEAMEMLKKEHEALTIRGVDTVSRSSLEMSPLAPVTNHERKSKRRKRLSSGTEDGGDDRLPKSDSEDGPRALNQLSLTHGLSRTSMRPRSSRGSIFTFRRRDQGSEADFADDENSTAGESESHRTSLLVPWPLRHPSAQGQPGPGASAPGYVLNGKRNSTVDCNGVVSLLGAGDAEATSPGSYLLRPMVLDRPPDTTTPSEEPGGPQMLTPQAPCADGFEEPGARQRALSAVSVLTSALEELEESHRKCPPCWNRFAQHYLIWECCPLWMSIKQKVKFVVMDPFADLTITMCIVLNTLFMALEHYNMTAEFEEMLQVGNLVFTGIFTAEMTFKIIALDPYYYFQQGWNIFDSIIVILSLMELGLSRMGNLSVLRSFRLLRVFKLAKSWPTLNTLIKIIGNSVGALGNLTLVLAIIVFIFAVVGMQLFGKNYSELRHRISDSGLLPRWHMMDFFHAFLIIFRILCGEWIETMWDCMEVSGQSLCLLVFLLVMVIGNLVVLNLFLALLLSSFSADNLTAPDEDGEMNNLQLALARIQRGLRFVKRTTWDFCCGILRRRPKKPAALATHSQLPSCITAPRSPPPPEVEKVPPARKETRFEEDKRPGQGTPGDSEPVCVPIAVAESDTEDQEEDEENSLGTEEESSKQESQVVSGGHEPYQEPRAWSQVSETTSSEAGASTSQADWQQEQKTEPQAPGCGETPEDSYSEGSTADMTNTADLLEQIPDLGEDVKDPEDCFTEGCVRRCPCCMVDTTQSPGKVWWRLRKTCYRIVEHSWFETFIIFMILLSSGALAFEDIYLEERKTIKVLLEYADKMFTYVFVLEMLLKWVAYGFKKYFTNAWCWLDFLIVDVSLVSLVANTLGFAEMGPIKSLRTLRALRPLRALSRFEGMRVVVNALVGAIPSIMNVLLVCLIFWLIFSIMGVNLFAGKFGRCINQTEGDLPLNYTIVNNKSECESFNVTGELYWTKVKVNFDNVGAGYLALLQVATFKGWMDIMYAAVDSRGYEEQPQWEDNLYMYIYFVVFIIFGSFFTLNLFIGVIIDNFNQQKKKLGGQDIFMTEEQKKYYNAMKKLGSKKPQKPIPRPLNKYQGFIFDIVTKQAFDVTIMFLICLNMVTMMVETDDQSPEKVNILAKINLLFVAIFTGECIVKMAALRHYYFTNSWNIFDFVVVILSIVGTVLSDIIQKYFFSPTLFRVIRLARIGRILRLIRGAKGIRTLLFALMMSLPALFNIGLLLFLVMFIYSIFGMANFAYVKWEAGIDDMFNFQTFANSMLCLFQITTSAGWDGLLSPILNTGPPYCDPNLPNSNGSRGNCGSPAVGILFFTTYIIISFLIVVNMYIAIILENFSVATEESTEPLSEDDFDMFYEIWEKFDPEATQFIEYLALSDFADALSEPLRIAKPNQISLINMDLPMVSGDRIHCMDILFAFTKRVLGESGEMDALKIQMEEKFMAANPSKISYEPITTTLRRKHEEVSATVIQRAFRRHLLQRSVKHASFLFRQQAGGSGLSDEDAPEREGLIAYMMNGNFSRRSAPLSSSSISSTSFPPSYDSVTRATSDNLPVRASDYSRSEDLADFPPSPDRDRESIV
From the text: as §1
As sodium current (INa) in ventricular myocytes is so fast and large that membrane potential is prone to escape from the command voltage, it is necessary to reduce INa for a quantitative analysis. For this purpose, small ventricular myocytes isolated from young (3-weeks-old) rats were used, and currents recorded in a modified Cs^+-based low Na^+ bath solution (Yuill et al., 2000) which contained (in mM): 130 CsCl, 10 NaCl, 2.5 MgCl2, 0.5 CaCl2, 20 HEPES, 11 glucose, in experiments shown in FIG. 5. It was reported that the kinetics of INa in the standard solution (145 mM Na^+) and in Cs-based solution (10 mM Na^+) were similar.
To examine the effect of dmLSB on inward currents, a Cs^+-rich pipette solution containing 10 mM EGTA was used. To distinguish L-type Ca^2+ currents (ICa,L) from Na^+ currents (INa), a two-step pulse protocol was used (inset of FIG. 4A). […] Although the peak amplitude of INa was unaffected by dmLSB, significant broadening of inactivation phase was observed.
To avoid the problem of voltage escape and to investigate the effects of dmLSB on INa in a quantitative manner, INa was recorded in low external [Na^+] (10 mM). It is well known that the steady-state inactivation shifted spontaneously during whole-cell mode recording. To activate INa from the potential at which inactivation is fully recovered, depolarising test pulses were applied following a 500 ms pre-pulse to −120 mV. To eliminate the contamination of ICa,L and to isolate pure INa, current response to the same test pulse from holding potential (Vh) of −40 mV, which was regarded as ICa,L, was subtracted from that from Vh of −120 mV.
Pre-pulses of 500 ms duration at variable potentials (from −150 to −15 mV in 15 mV steps) preceded a 50 ms test pulse to −20 mV. The superimposed current responses to the test pulse (−20 mV) are shown in FIG. 6A (left, control; right, 20 μM dmLSB). […] The peak amplitudes of INa are plotted against pre-pulse voltages in FIG. 6B. […] The voltages for half inactivation were −75.7±0.61 mV (n=28) in control and −77.8±1.05 mV (n=32) in the presence of dmLSB (t-test, p>0.05).
Since dmLSB specifically affected the slow phase of inactivation, the difference current represented the slow inactivating INa (ISlow) induced by dmLSB. To quantify the magnitude of the effect of dmLSB on INa, the relative amplitude of ISlow to the peak INa was plotted.
Since dmLSB is lipophilic, it is possible that it permeates the plasma membrane and binds to intracellular receptors or to Na channel protein itself. It is not clear whether its effects were mediated via a cell surface binding site, an intracellular site, or both. To test this possibility, a ventricular myocyte was perfused intracellularly with the patch pipette solution containing 20 μM dmLSB, and INa was monitored while patch pipette solution diffused-in. Meanwhile, the series resistance (RS) was kept below 7 MΩ. As soon as the whole-cell patch was established, INa was recorded at a test potential of −20 mV, and this current trace was subtracted from subsequent INa records. The amplitudes of the subtracted currents were plotted as a function of whole-cell recording time (WCR time; FIG. 8A). […] No change in the inactivation kinetics of INa was observed until dmLSB was applied externally. When 5 μM dmLSB was bath-applied at ca 13 min of WCR time to the same cell, ISlow appeared, indicative of the dmLSB effect.

The mark [4] stands for this setting: mean value, during dmLSB superfusion, n=7.

Each structure is given as a SMILES string. Where “and” joins values, the source holds several entries; their conditions need not be identical. Equal values may be shown once. Entries after “also recorded” stand apart in the source; their conditions may differ. Where only a bound is given, the exact number is not on record here.

Here are results for six compounds from patent publication US20060008541A1, “Sodium channel agonist” (BIZMEDIC CO., LTD., priority 2004, published 2006).

By Hill coefficient is commonly meant a measure of the steepness of the concentration-response curve. For orientation: EC50 means the concentration needed to bring the measured effect to its halfway point.

cardiac INa, sequence (Q14524 whole entry): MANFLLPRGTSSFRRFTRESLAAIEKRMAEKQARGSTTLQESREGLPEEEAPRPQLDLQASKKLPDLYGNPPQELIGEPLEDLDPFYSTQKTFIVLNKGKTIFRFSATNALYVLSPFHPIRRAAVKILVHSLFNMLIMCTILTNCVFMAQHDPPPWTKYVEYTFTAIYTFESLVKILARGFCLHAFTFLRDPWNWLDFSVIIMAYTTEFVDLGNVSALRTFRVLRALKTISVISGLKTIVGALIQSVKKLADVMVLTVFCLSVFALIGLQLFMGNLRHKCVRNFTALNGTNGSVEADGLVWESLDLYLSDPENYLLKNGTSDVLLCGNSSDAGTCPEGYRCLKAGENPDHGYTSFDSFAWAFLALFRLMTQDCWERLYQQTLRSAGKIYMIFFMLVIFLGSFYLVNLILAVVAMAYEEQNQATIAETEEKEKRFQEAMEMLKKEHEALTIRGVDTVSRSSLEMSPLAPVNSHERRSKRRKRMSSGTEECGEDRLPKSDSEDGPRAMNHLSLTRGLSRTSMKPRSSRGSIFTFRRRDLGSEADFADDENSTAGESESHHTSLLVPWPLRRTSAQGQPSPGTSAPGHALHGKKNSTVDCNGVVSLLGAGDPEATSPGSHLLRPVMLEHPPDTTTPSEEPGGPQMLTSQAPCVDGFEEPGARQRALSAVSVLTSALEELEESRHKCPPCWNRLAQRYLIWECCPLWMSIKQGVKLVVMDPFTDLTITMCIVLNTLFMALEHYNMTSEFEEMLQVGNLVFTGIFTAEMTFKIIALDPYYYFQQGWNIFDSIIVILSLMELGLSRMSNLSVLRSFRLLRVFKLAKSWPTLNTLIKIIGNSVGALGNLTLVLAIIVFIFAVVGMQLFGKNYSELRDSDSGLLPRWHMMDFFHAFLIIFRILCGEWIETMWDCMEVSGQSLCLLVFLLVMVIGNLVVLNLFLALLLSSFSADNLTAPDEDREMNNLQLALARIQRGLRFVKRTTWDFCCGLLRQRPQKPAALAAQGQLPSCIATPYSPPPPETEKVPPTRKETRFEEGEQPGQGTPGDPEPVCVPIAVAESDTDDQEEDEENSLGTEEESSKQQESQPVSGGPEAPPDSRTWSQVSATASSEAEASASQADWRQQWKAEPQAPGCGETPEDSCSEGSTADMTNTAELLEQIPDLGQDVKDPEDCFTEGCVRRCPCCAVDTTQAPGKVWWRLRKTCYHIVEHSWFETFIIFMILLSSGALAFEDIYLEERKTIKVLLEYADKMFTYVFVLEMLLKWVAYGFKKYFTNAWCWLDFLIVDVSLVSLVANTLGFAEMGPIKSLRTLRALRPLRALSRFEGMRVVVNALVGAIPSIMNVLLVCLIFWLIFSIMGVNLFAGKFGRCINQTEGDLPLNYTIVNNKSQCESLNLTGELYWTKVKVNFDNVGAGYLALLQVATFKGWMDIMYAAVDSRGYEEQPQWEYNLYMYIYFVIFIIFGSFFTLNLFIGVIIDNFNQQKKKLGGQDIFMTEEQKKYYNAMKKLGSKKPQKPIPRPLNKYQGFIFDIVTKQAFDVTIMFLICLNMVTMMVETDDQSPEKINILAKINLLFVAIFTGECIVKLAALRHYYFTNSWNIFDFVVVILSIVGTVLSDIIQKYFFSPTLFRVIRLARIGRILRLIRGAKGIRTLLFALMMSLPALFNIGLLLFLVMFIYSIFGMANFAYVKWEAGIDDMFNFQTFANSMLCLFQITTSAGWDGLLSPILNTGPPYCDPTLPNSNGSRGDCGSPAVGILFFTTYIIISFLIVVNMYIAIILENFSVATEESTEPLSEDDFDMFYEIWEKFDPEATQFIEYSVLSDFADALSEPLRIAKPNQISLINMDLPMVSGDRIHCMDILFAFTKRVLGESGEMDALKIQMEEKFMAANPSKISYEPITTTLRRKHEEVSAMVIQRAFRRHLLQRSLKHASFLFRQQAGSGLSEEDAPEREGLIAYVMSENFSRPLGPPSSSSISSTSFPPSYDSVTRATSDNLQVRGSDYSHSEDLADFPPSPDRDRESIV

With `CC1(C)C(C(=O)OC(C#N)c2cccc(Oc3ccccc3)c2)C1(C)C` (stereo not shown) [fenpropathrin], the “activation and inactivation curves of INa (literature)” value on cardiac INa is on record as “leftward shifts”.
With `N#Cc1cc2c(OCC(O)CN3CCN(C(c4ccccc4)c4ccccc4)CC3)cccc2[nH]1` (stereo not shown) [DPI 201-106], at cardiac INa, the “persistent INa (literature)” value is “induce a persistent INa”. At L-type calcium current, the “calcium current (literature)” value is given as “inhibit”. In data set [1], the “inward rectifier K+ current (literature)” value is “inhibit”.
Take `Cc1oc2ccccc2c1Cc1cc(I)c(OCC(=O)O)c(I)c1` [KB130015, 2-Methyl-3-(3,5-diiodo-4-carboxymethoxybenzyl)benzofuran]: at cardiac INa, the “INa inactivation (literature)” value is on record as “slowed INa inactivation” and the “persistent INa (literature)” value is recorded as “without developing persistent INa”. At L-type calcium current, the “calcium current (literature)” value is listed as “reduces ICa”.
Regarding `COC(=O)[C@@H](Cc1ccc(O)c(O)c1)OC(=O)/C=C/c1ccc(O)c2c1[C@H](C(=O)O[C@H](Cc1ccc(O)c(O)c1)C(=O)OC)[C@@H](c1ccc(O)c(O)c1)O2` [dmLSB, dimethyl lithospermate B], the “Action potential duration (APD90)” value with rat ventricular myocytes (20 μM dmLSB, control 58.8±12.1 ms, n=7) turned out to be 202.3 ± 9.5 ms. In addition, the “early after-depolarisation (EAD)” value in the data set with rat ventricular myocytes (during prolonged plateau phase of AP) was “no early after-depolarisation was observed; also recorded: not associated with the generation of EAD; also recorded: no EAD observed”. Besides, in the data set with rat ventricular myocytes (isolated rat ventricular myocytes), the “effect on AP duration (APD)” value is “increases the APD”. Also, in the data set on rat ventricular myocytes (setting [4]), the overshoot potential came out at 53.53±8.8 mV and the “resting membrane potential (RMP)” value was −68.46±2.6 mV. The “concentration at which APD prolongation was maximal” value in the data set on rat ventricular myocytes (tested up to 100 μM) was 20 µM. For the same compound, the “effect on K+ currents” value in data set [2] is reported as “no noticeable effect; also recorded: no significant difference”. The “effect on Ca2+ currents (ICa,L)” value in data set [3] was “no noticeable effect; also recorded: hardly affected; also recorded: No significant difference”. Besides, on Na+ current (INa), the INa inactivation kinetics result is on record as “slowed the inactivation kinetics” and the “steady-state (s-s) inactivation of INa” value was “not affected; also recorded: no effect on the steady-state inactivation”. Further, on Na+ current (INa) (10 μM dmLSB), the “peak amplitude of INa” value is on record as “unaffected; also recorded: decreased slightly”. Besides, at Na+ current (INa) (10 μM dmLSB, −20 mV), the “time within which INa inactivation was completed” value was ≤ 50 ms. The “effect of intracellular application on INa” value on Na+ current (INa) (20 μM dmLSB in pipette solution, n=4) was “essentially no effect on INa”. In addition, on Na+ current (INa) (20 μM dmLSB, n=32, control −75.7, no unit), the “V1/2 of steady-state inactivation fit” value is −77.8. Besides, at Na+ current (INa) (20 μM dmLSB, n=32, control −75.7±0.61 mV), the “voltage for half inactivation” value is given as −77.8±1.05 mV. In addition, on Na+ current (INa) (20 μM dmLSB, control 10.20), the “k of steady-state inactivation fit” value was determined as 9.99. Besides, at Na+ current (INa) (at −20 mV, 10 μM dmLSB, bi-exponential fit, n=4), the “amplitude of the slow component (AS), of the peak INa” value came to 22.1±1.02%. At Na+ current (INa) (bath application), the “time to maximal effect at each concentration” value is reported as “ca. 150 seconds”. Besides, at Na+ current (INa) (dose-response of ISlow relative to peak INa), the Hill coefficient came out at 1.02. Also, the “mean voltage for half-maximal activation” value on Na+ current (INa) (in the presence of 10 μM dmLSB, low [Na+] 10 mM, n=4, control −42.35±1.1) was −37.28±0.8. Moreover, the EC50 on Na+ current (INa) (test pulse −20 mV, Hill fit, read-out: EC50, relative amplitude of slow component (ISlow) to peak INa) was 21.1 µM and 20 µM. The “shift of voltage-dependence of activation (activation curve)” value on Na+ current (INa) (to the depolarised (right) direction, 10 μM dmLSB) came to 5 mV. Also, at Na+ current (INa) (wash-out), the “reversibility of effect on INa” value is “reversible; also recorded: completely reversed after the wash-out”.
In the case of `O=C(/C=C/c1ccc(O)c2c1C(C(=O)OC(Cc1ccc(O)c(O)c1)C(=O)O)C(c1ccc(O)c(O)c1)O2)OC(Cc1ccc(O)c(O)c1)C(=O)O` (stereo not shown) [LSB, lithospermate B, reference compound], the electrophysiological effect entry in the data set on rat ventricular myocytes is on record as “negligible electrophysiological effect; also recorded: no effect on cardiac action potential”.
On to `N#Cc1cc2c(OCC(O)COC3CN(C(c4ccccc4)c4ccccc4)C3)cccc2[nH]1` (stereo not shown) [BDF 9148], for which the “persistent INa (literature)” value at cardiac INa is given as “induce a persistent INa”. Moreover, on L-type calcium current, the “calcium current (literature)” value was “inhibit”. The “inward rectifier K+ current (literature)” value in data set [1] was “inhibit”.
